In PMC8080589, “Modulation of αVβ6 integrin in osteoarthritis-related synovitis and the interaction with VTN(381–397 a.a.) competing for TGF-β1 activation” (Experimental & Molecular Medicine, 2021):
Ends that are not written are not given here.

Assays:
integrin αVβ6 = target: T1, integrin αVβ6 (Homo sapiens, UniProt P06756+P18564); assay: Competition study, 125ISIB-echistatin vs ligands on coated αVβ6; format: binding; conditions: competition with 125ISIB-echistatin on α5β1, αVβ1, αVβ3, αVβ5, αVβ6
T1 construct: purchased R&D System; Minneapolis, MN, USA
T1 sequence (P06756 31-992 limits assumed): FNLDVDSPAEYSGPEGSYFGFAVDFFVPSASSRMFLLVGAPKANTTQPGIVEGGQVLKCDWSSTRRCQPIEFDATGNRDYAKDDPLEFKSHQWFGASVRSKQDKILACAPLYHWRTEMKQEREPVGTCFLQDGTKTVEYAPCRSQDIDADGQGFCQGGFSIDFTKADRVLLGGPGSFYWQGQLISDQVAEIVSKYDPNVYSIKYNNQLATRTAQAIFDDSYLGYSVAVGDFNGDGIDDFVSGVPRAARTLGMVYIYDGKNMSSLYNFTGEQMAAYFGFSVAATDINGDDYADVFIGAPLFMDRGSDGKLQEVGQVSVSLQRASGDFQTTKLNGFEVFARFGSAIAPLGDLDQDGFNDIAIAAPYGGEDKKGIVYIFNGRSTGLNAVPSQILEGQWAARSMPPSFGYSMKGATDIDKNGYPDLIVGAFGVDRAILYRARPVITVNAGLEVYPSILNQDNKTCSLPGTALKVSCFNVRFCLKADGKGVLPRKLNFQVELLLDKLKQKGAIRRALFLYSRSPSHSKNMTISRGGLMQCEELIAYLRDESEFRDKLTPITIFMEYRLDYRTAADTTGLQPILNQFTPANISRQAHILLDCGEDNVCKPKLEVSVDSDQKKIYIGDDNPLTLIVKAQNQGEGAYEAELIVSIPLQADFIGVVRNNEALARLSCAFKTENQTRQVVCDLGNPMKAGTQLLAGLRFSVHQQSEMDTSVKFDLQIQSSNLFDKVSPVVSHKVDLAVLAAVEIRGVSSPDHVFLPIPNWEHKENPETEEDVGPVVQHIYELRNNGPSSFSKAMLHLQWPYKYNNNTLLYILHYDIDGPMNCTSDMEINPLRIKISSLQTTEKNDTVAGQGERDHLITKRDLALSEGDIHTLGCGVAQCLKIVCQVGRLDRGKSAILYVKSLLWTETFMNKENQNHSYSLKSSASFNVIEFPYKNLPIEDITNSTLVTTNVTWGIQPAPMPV
T1 sequence (P18564 22-707 limits assumed): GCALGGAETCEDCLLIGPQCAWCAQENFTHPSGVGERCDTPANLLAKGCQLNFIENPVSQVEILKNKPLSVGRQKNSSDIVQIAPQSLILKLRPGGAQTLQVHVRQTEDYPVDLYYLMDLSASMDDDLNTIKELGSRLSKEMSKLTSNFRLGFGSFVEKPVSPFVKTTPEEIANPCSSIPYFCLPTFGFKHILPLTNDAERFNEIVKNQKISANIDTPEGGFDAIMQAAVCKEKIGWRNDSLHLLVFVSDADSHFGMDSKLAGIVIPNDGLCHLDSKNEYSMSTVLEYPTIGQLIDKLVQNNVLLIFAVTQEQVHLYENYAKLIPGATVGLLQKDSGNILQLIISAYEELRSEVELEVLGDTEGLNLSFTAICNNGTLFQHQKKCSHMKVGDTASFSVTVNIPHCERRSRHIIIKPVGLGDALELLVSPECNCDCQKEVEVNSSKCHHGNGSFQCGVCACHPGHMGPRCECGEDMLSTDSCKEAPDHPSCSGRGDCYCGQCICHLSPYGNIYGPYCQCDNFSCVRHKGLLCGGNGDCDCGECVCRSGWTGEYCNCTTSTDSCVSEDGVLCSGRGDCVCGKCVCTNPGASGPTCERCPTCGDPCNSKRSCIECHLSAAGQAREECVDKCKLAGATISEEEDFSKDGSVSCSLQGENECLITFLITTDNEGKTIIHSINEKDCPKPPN
Experimental: A competition study was performed to investigate the interaction of VTN(381–397 a.a.) with five different integrins. Radiolabeled echistatin, a disintegrin known to bind integrin receptors, was used as a tracer for the binding assays. Lyophilized echistatin was provided by Bachem (Bubendorf, Switzerland) and radiolabeled by conjugation with a radioiodinated benzoate (^125ISIB) to the epsilon amino group of lysine side chains. For the five integrins, α5β1, αVβ1, αVβ3, αVβ5, and αVβ6 (R&D System; Minneapolis, MN, USA), a solution at 1.8 µg/mL was prepared with integrin-binding buffer (IBB; 20 mM Tris pH 7.4, 150 mM NaCl, 2 mM CaCl2, 1 mM MgCl2, 1 mM MnCl2). Nunc Maxisorp Module plates were coated overnight at 4 °C with integrin complex at 1.8 µg/mL. After the wells were washed with sample buffer (IBB, 0.5% BSA), blocking solution (IBB, 2% BSA) was added, and the microplate was incubated for 2 h at room temperature. The wells were then washed three times with IBB/0.5% BSA. Then, ^125ISIB-echistatin was diluted in sample buffer to fixed concentrations of 4, 4, 8, 8, and 20 nM for α5β1, αVβ1, αVβ3, αVβ5, and αVβ6 competition studies, respectively. The ^125ISIB-echistatin was mixed with sample buffer at a ratio of 1:1 (total binding = control well) or with increasing concentrations of ligands (Supplementary information SI1) [complete VTN, VTN(381–397 a.a.), VTN(365–381 a.a.)] at a ratio 1:1 and added to wells in duplicate. We used 1,4,7-triazacyclononane-1,4,7-triacetic acid (NOTA) as a negative control. […] After rinsing, bound radioactivity was quantified using a gamma counter. The percentage of relative binding of radiolabeled echistatin was calculated as follows: radioactivity in the test well*100/radioactivity in the reference well. […] For comparison of the potency of ligands in inhibiting bound ^125ISIB-echistatin for different integrin complexes, the half-maximal inhibitory concentration (IC50) was calculated. The IC50 value was determined by constructing a dose–response curve and examining the effect of different concentrations of ligands on ^125ISIB-echistatin binding. […]
To determine if VTN(381–397 a.a.) could interact with integrins, we investigated its ability to compete with radiolabeled echistatin for binding to five different integrin complexes: α5β1, αVβ1, αVβ3, αVβ5 and αVβ6. […] First, the binding affinity of echistatin to the five integrins was measured by determining the equilibrium dissociation constant (KD). […] The fixed concentration of radiolabeled echistatin was determined according to its KD value. For each ligand concentration, the relative binding of ^125ISIB-echistatin to coated integrins was then measured, and values were plotted versus the logarithm of ligand concentration.

αVβ3 = conditions: ref [32]; cited from earlier work
Description: (§1) In this study, we started to move towards a functional investigation of the role of VTN(381–397 a.a.) in OA. VTN is known to interact with integrin receptors by its RGD motif, which is positioned far upstream from VTN(381–397 a.a.) on the N-terminal end of VTN. However, Maile and colleagues also previously described a second integrin-binding site located within the HBD between amino acids 365 and 381[32],[33]. […] Considering that the fragment VTN(381–397 ...

β3 phosphorylation = conditions: through binding to αVβ3; ref [32]; cited from earlier work
Description: as §1

Sequence: LAKKQRFRHRNRKGYRS [VTN(365–381 a.a.)]
- integrin binding specificity (integrin αVβ6): only showed a high affinity for integrin αVβ6
- interaction with αVβ3 (αVβ3): could interact with αVβ3
- effect on β3 phosphorylation (β3 phosphorylation): its binding was sufficient to enhance β3 phosphorylation
